Data on 17 compounds can be found in US4370340A, “Benzothiazol-2-one-3-alkanoic acids and esters and aldose reductase inhibiting compositions thereof” (Fujisawa Pharmaceutical Co., Ltd., priority 1979, dated 1983).

The target of the first assay is T1, rabbit lens aldose reductase (Oryctolagus cuniculus, UniProt P15122).
T1 construct: aldose reductase prepared from rabbit lens; from tissue; host or cells: rabbit lens
Description: Inhibitory effect on rabbit lens aldose reductase. The assay is classed as biochemical.
Settings: not given
As to `O=C(O)Cn1c(=O)sc2cc(Cl)ccc21` [compound 12], the IC50 is 410 nM.

The assay is the same for the next values; noted with them: aldose reductase prepared from rabbit lens; graphically calculated from inhibitory effect at various concentrations; read-out: 50% Inhibitory concentration (IC50).
As for `Cc1cc2c(cc1-c1ccccc1)sc(=O)n2CC(=O)O` [compound 14], the IC50 is 33 nM.

For `O=C(O)Cn1c(=O)sc2cc(Oc3ccccc3)c(Cl)cc21` [Test Compound 1, 2-Oxo-5-chloro-6-phenoxy-3-benzothiazolineacetic acid], the IC50 is 50 nM.

For `O=C(O)CN1C(=O)C(=O)c2ccc(Cl)cc21` [Test Compound 13, 2,3-dioxo-6-chloro-1-indolineacetic acid], the IC50 is 300 nM.

On to `O=C(O)Cn1c(=O)oc2ccc(Cl)cc21` [compound 11], for which the IC50 is 250 nM.

On to `O=C(O)Cn1c(=O)sc2cc(Oc3ccccc3)ccc21` [Test Compound 3, 2-Oxo-6-phenoxy-3-benzothiazolineacetic acid], for which the IC50 is 690 nM.

As for `O=C(O)Cn1c(=O)sc2cc(-c3ccccc3)c(Cl)cc21` [compound 2], the IC50 was 29 nM.

As to `O=C(O)Cn1c(=O)sc2cc([N+](=O)[O-])c(Cl)cc21` [compound 16], the IC50 was 120 nM.

For the compound `O=C(O)Cn1c(=O)oc2cc(-c3ccccc3)c(Cl)cc21` [compound 7], the IC50 was 49 nM.

Turning to `O=C(O)Cn1c(=O)sc2ccc(Cl)cc21` [Test Compound 10, 2-Oxo-5-chloro-3-benzothiazolineacetic acid], the IC50 was 200 nM.

As for `O=C(O)Cn1c(=O)sc2cc(Br)c(Cl)cc21` [Test Compound 8, 2-Oxo-5-chloro-6-bromo-3-benzothiazolineacetic acid], the IC50 is 50 nM.

As to `O=C(O)CN1C(=O)Cc2ccc(Cl)cc21` [compound 9], the IC50 is 270 nM.

As to `Nc1cc2sc(=O)n(CC(=O)O)c2cc1Cl` [compound 17], the IC50 was 100 nM.

`O=C(O)Cn1c(=O)sc2cc(Oc3ccccc3Cl)ccc21` [compound 4]: the IC50 was 270 nM.

For `O=C(O)Cn1c(=O)sc2cc(C3CCCCC3)c(Cl)cc21` [Test Compound 6, 2-Oxo-5-chloro-6-cyclohexyl-3-benzothiazolineacetic acid], the IC50 was 140 nM.

Consider `O=C(O)Cn1c(=O)sc2c(Cl)c(-c3ccccc3)ccc21` [Test Compound 5, 2-Oxo-6-phenyl-7-chloro-3-benzothiazolineacetic acid], for which the IC50 was 120 nM.

For `O=C(O)Cn1c(=O)sc2cc(Cl)c(Cl)cc21` [Test Compound 15, 2-Oxo-5,6-dichloro-3-benzothiazolineacetic acid], the IC50 is 38 nM.
